ChEMBL document CHEMBL3232801, “Oxidative stress in Alzheimer's disease: are we connecting the dots?” (J Med Chem, 2014)

Legend:
Acetylcholinesterase [1] = molecular target: T1, Acetylcholinesterase (Homo sapiens, UniProt P22303); test: Inhibition of AChE (unknown origin)
[2] = molecular target: T2, Amyloid-beta precursor protein (Homo sapiens, UniProt P05067); test: Inhibition of amyloid beta (unknown origin) aggregation at 25 uM
Acetylcholinesterase [3] = molecular target: T1, Acetylcholinesterase; test: Inhibition of AChE (unknown origin)-mediated amyloid beta aggregation at 100 uM
[4] = molecular target: T2, Amyloid-beta precursor protein; test: Inhibition of amyloid beta (unknown origin) aggregation
[5] = molecular target: T2, Amyloid-beta precursor protein; test: Inhibition of amyloid beta (unknown origin) aggregation at 10 uM
Acetylcholinesterase [6] = molecular target: T1, Acetylcholinesterase; test: Inhibition of AChE (unknown origin) assessed as inhibition of ROS production

T1 sequence (P22303 whole entry): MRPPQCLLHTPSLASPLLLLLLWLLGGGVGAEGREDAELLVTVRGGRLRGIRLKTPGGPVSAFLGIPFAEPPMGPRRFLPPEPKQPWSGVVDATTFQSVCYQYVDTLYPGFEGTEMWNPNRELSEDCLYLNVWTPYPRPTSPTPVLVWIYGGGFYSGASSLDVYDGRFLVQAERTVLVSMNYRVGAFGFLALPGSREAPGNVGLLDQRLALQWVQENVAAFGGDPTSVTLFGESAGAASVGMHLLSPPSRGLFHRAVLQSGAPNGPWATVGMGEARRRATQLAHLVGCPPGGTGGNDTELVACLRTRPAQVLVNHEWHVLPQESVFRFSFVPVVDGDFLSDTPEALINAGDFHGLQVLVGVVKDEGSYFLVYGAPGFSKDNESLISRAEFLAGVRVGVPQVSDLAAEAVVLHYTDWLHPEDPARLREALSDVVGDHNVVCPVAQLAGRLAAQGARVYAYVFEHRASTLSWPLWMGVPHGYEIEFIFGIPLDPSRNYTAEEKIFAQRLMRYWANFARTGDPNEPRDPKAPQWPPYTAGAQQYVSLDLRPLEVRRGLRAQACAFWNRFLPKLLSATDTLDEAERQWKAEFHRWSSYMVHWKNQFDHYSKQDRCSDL
T2 sequence (P05067 whole entry): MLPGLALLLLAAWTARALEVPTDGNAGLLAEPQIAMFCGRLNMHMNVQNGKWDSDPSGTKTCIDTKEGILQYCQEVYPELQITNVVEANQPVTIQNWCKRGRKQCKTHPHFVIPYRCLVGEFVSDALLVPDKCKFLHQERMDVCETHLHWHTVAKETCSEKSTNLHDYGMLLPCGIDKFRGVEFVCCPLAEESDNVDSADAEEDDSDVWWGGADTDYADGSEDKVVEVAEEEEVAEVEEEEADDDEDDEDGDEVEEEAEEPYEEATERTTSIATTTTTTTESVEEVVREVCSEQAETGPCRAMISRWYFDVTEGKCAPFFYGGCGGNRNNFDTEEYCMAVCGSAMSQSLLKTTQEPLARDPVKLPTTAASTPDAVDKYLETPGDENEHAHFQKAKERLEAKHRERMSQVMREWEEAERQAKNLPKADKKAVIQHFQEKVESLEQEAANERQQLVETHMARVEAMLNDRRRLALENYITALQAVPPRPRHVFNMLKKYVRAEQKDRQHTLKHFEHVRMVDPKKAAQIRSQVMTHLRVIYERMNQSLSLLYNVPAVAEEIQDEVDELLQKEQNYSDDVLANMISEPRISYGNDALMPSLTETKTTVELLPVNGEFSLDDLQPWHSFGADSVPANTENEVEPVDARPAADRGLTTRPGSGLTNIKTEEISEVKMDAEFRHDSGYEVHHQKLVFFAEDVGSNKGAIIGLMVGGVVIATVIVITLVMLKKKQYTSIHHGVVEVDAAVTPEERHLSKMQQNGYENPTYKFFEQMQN

| Compound | IC50 (Acetylcholinesterase [1]) | inhibition [2] | inhibition (Acetylcholinesterase [3]) | IC50 [4] | inhibition [5] | IC50 (Acetylcholinesterase [6]) |
| --- | --- | --- | --- | --- | --- | --- |
| COc1cc(/C=C/C(=O)NCCCCCCNc2c3c(nc4ccccc24)CCCC3)ccc1O | 0.0116 µM | 100% | – | – | – | – |
| c1ccc2c(NCCSSCCNc3c4c(nc5ccccc35)CCCC4)c3c(nc2c1)CCCC3 | 0.00504 µM | – | 52.6% | 24.2 µM | – | – |
| O=C(CCCOc1cccc2[nH]c3ccccc3c12)NCCCNc1c2c(nc3ccccc13)CCCC2 | 0.00215 µM | – | 57.7% | – | 36% | 23 µM |
